# Key:
# [1] = system: alcohol-damaged AML-12 cells; test: MTT cell survival, ameliorative effect on cell alcohol damage (260 mM alcohol); assay type: cell-based, mouse; details: pretreatment 24 hours, then 260 mM alcohol 24 hours
# Procedure: Log-growing AML-12 cells are collected and digested, and then seeded into a 96-well plate at a density of 0.8×10^5 cells/mL per well. After 24 hours of cell proliferation, the control (and model) group is incubated with 100 μL of medium for 48 hours; the 3,5-O-dicaffeoylquinic acid treatment group is incubated with different concentrations of 3,5-O-dicaffeoylquinic acid for 24 hours, and the original medium is discarded; the cells (in model and drug treated group) are incubated in 100 μL of medium containing 260 mM alcohol for 24 hours. The absorbance measurement method is the same as the item 2 above.
# Cell survival rate is calculated using the following formula: […]
# α-glucosidase = details: studies have shown; cited from earlier work
# [2] = system: alcohol-induced AML-12 cells; test: ROS content determination (DCFH-DA, fluorescence microscope and flow cytometer); assay type: cell-based, mouse; details: 260 mM alcohol
# Procedure: (§1) AML-12 cells are treated with drugs (100, 200, 400 μg/mL) for 24 h, and then treated with 260 mM alcohol for 24 h. After trypsin digestion and PBS washing, the probe from the ROS kit is added. First, incubation is conducted with 1 mL of DCFH-DA (diluted in serum-free DMEM) at 37° C. for 20 min. The supernatant is discarded after centrifugation, and the remaining is washed three times and resuspended in PBS. 10 μL of the resuspension is observed under a fluorescence microscope, and is further detected under a flow cytometer.
# AML-12 cells = test: MTT cell survival, toxic effect of 3,5-O-dicaffeoylquinic acid on cells; assay type: cell-based, mouse; details: for cell survival rate: AML-12 cells, 24 hours, MTT
# Procedure: AML-12 cells, mouse normal liver cells; 3-(4,5-dimethylthiazol-2-yl)-2,5-diphenyl-2H-tetrazolium-3-bromide (MTT), dimethyl sulfoxide (DMSO), reactive oxygen species (ROS) kit, superoxide dismutase (SOD) kit, malondialdehyde (MDA) kit, glutathione (GSH) kit; high-speed centrifuge, microplate reader, etc.
# Logarithmically growing AML-12 cells are seeded into 96-well plates at a density of 0.8×10^5 cells/mL, and 100 μL of cell suspension is added to each well and incubated for 24 hours. In an alcohol treatment group, alcohol (0-1600 mM, DMEM dilution) is added to the incubator for 24 hours. In a 3,5-O-dicaffeoylquinic acid treatment group, 100 μL of 3,5-O-dicaffeoylquinic acid (100-1600 μg/mL, DMEM dilution) is added to the incubator for 24 hours. 120 μL of MTT (1 mg/mL) is added to each well and incubated for 4 h. The reaction solution is discarded; 150 μL DMSO is added, and OD value is measured at a wavelength of 490 nm after shaking for 10 minutes in the dark.
# [3] = system: focal cerebral ischemia-reperfusion injury; details: rats; studies have shown; cited from earlier work
# [4] = studies have shown; cited from earlier work
# [5] = system: alcohol-induced AML-12 cells; test: Apoptosis and necrosis after alcohol damage (Hoechst, fluorescence microscope and flow cytometer); assay type: cell-based, mouse; details: 260 mM alcohol
# Procedure: as §1, with “washing,” for “washing, the”, “an apoptosis detection” for “the ROS”, “5 μL Hoechst” for “1 mL of DCFH-DA”, “PBS)” for “serum-free DMEM)”, “0°” for “37°”
# [6] = system: alcohol-induced AML-12 cells; test: Determination of MDA, SOD, CAT and GSH content (kits); assay type: cell-based, mouse; details: 260 mM alcohol
# Source text: Excessive ROS in cells can cause oxidative reactions in proteins and unsaturated fatty acids. MDA is the final product of the oxidation of polyunsaturated fatty acids and is a marker of lipid peroxidation in cells, which is widely used in studies on oxidative stress. SOD, CAT, and GSH are important antioxidant enzymes in the body and play an important role in the body's systematic resistance to oxidative stress. […] After trypsin digestion and PBS washing, the MDA, SOD, CAT, and GSH content in the cells are detected according to the guidance of corresponding kits.
# [7] = 400 μg/mL pretreatment, fluorescence microscope
compound,measurement,setting,value
"O=C(C=Cc1ccc(O)c(O)c1)OC1CC(O)(C(=O)O)CC(OC(=O)C=Cc2ccc(O)c(O)c2)C1O (single isomer, unassigned) [3,5-O-dicaffeoylquinic acid]",increase of cell survival rate compared with the model group,"[1]; 400 μg/mL, highest cell survival rate",19.90%
same,survival rate of alcohol-damaged AML-12 cells compared with model group,[1]; 100-400 g/mL (so in the source),significantly increase
same,α-glucosidase inhibition,α-glucosidase,inhibits
same,ROS fluorescence intensity of the cells compared to the alcohol-treated group (model group),[2]; [7],significantly reduces
same,"fluorescence intensity of ROS versus model group, dependence on drug concentration","[2]; 100, 200, 400 μg/mL pretreatment, fluorescence microscope",gradually weakens with the increase of drug concentration
same,"ROS peak fluorescence intensity, flow cytometry","[2]; pretreatment with different concentrations, as the drug concentration increases",shifts significantly to the right
same,cell survival rate,AML-12 cells; 0-800 μg/mL,increases significantly
same,cell survival rate,"AML-12 cells; 1600 μg/mL, P<0.05",decreases significantly
same,toxicity to AML-12 cells,AML-12 cells; concentration range of 0-800 μg/mL,non-toxic
same,focal cerebral ischemia-reperfusion injury,[3],can mitigate
same,antioxidant effects,[4],certain antioxidant effects
same,fluorescence intensity of apoptosis compared with the alcohol-treated group,[5]; [7],significantly reduces
same,cell survival rate (apoptosis/necrosis flow cytometry),"[5]; pretreatment with different concentrations, with the increase in drug concentration",gradually increases
same,"MDA content in cells, concentration of best effect",[6]; 200 μg/mL pretreatment,most significant effect
same,GSH content,"[6]; 400 μg/mL pretreatment, increases from 53.39±2.16 mg/g protein",82.14±1.67 mg/g protein
same,activity of CAT in cells,[6]; 100-600 μg/mL pretreatment,significantly restore
same,activity of SOD in cells,[6]; 100-600 μg/mL pretreatment,significantly restore
same,MDA content in cells,[6]; pretreatment at different concentrations,significantly reduces

# Source: patent US20250333370A1, “METHOD FOR EXTRACTING 3,5-O-DICAFFEOYLQUINIC ACID FROM HUANGSHAN GONGJU AND ITS APPLICATION IN DRUGS FOR PROTECTING AGAINST ALCOHOLIC LIVER DAMAGE” (Hefei University of Technology, priority 2024, published 2025)
